Measurements: PMC7594953 (Acta Pharmacologica Sinica, 2020)
Entries after “also recorded” stand apart in the source; their conditions may differ.

What was measured:
VSV-G pseudovirus = assay: microbe, parasite or virus in culture; type: cell-based; details: Huh-7, read-out: VSV-G pseudovirus EC50
in vitro = details: human
SARS2-S pseudovirus [1] = assay: in vitro; details: human
SARS2-S pseudovirus [2] = assay: microbe, parasite or virus in culture; details: Huh-7, 48 h; for EC50: read-out: SARS2-S pseudovirus EC50; for EC90: read-out: SARS2-S pseudovirus EC90
SARS-CoV-2 (WIV04) = type: cell-based
SARS-CoV S pseudovirus = assay: microbe, parasite or virus in culture; type: cell-based; details: Severe acute respiratory syndrome coronavirus; for EC50: Huh-7, read-out: SARS-CoV S pseudovirus EC50; for EC90: Huh-7, read-out: SARS-CoV S pseudovirus EC90
SARS2-S pseudovirus [3] = details: Huh-7 cells, screening at 20 µM
COVID-19 = details: critically ill patients; cited from earlier work
[4] = Huh-7 CC50, Table 2, mean ± SEM from two independent experiments

Row | Structure (SMILES) | EC50 (VSV-G pseudovirus) [µM] | CC50 (in vitro; Huh7 CC50) [µM] | selectivity ratio (SARS2-S pseudovirus [1]) | EC50 (SARS2-S pseudovirus [2]) [nM] | EC90 (SARS2-S pseudovirus [2]) [µM] | Activity against native SARS-CoV-2 replication (in words) (SARS-CoV-2 (WIV04)) | EC50 (SARS-CoV S pseudovirus) [nM] | EC90 (SARS-CoV S pseudovirus) [µM] | CC50 (in vitro; [4]) [µM] | Activity in SARS2-S pseudovirus screening (in words) (SARS2-S pseudovirus [3]) | Improvement of oxygen support (COVID-19) [%]
1 | CNCCCC1c2ccccc2C=Cc2ccccc21 [Protriptyline] | > 20 | > 20 | > 13.5 | 1680 | 7.21 |  |  |  |  |  | 
2 | COc1cc2ncnc(Nc3ccc(F)c(Cl)c3)c2cc1OCCCN1CCOCC1 [Gefitinib] |  |  |  |  | 20.3 |  |  |  |  |  | 
3 | CN(C)CCOc1ccc(/C(=C(/CCCl)c2ccccc2)c2ccccc2)cc1 [Toremifene] | 17.7 |  | 8.92 | 1920 | 13 | significantly inhibited SARS2 replication | 2280 ± 1090 | > 20 | > 20 |  | 
4 | CC(CN1c2ccccc2Sc2ccccc21)N(C)C (stereo not drawn) [Promethazine] | > 20 |  | > 20.8 | 960 | 18.2 | failed to show activity |  |  |  |  | 
5 | O=C(O[C@H]1CN2CCC1CC2)N1CCc2ccccc2[C@@H]1c1ccccc1 [Solifenacin] | > 20 |  | > 9.66 | 2030 | 8.98 |  |  |  |  |  | 
6 | CCCCc1oc2ccccc2c1C(=O)c1cc(I)c(OCCN(CC)CC)c(I)c1 [Amiodarone] |  |  |  |  | 19.4 | significantly inhibited SARS2 replication |  | > 20 |  |  | 
7 | OCCN1CCN(CCC=C2c3ccccc3Sc3ccc(C(F)(F)F)cc32)CC1 [Flupenthixol] | 17.9 |  | 11.7 | 1450 | 8.68 | significantly inhibited SARS2 replication | 1390 ± 350 | 10.8 ± 1.05 | 14.7 ± 3.28 |  | 
8 | OCCN1CCN(CCCN2c3ccccc3Sc3ccc(Cl)cc32)CC1 [Perphenazine] | > 20 |  | 14.7 | 2140 | > 20 | failed to show activity |  |  |  |  | 
9 | CC(CN(C)C)CN1c2ccccc2Sc2ccccc21 (stereo not drawn) [Trimeprazine] | 5.87 |  | 14.2 | 970 | 3.77 | significantly inhibited SARS2 replication | 660 ± 450 | 4.3 ± 0.48 | 16.7 ± 1.89 |  | 
10 | CN(C)CCCN1c2ccccc2Sc2ccc(Cl)cc21 [chlorpromazine] |  |  |  |  |  |  |  |  |  | limited toxicity/activity window | 
11 | CNCCC=C1c2ccccc2CCc2ccccc21 [Nortriptyline] | 17.2 | 16.8 | 14.5 | 1060 | 5.26 | failed to show activity |  |  |  |  | 
12 | CCC(CC)COC(=O)[C@H](C)N[P@](=O)(OC[C@H]1O[C@@](C#N)(c2ccc3c(N)ncnn23)[C@H](O)[C@@H]1O)Oc1ccccc1 [remdesivir] |  |  |  |  |  |  |  |  |  |  | 68
13 | CN(C)[C@@H](CCOc1cccc2ccccc12)c1ccccc1 [Dapoxetine] | 18.9 |  | 13.1 | 1190 | 18 |  |  |  |  |  | 
14 | Cc1ccc(NC(=O)c2ccc(CN3CCN(C)CC3)cc2)cc1Nc1nccc(-c2cccnc2)n1 [imatinib] |  |  |  |  |  |  |  |  |  | weak activity | 
15 | COc1cc(Nc2c(C#N)cnc3cc(OCCCN4CCN(C)CC4)c(OC)cc23)c(Cl)cc1Cl [Bosutinib] | 5.07 |  | 13.6 | 1300 | 1.56 | significantly inhibited SARS2 replication | 1040 ± 50 | 3.15 ± 0.01 | 13.6 ± 2.16 |  | 
16 | CN1CCCC(n2nc(Cc3ccc(Cl)cc3)c3ccccc3c2=O)CC1 (stereo not drawn) [Azelastine] | > 20 |  | > 11.3 | 1810 | 5.63 | significantly inhibited SARS2 replication | 2360 ± 1570 | > 20 | > 20 |  | 
17 | CN(C)CC/C=C1/c2ccccc2Sc2ccc(Cl)cc21 [Chlorprothixene] | > 20 |  | > 11.9 | 2150 | 23.8 | failed to show activity; also recorded: no anti-SARS-CoV-2 activity |  |  |  |  | 
